Laboratory results from patent US20100160351A1, “PHARMACEUTICAL COMPOSITIONS AND METHODS FOR TREATING HYPERURICEMIA AND RELATED DISORDERS” (NUON THERAPEUTICS, INC., priority 2008, published 2010).

System: serum uric acid (sUA) levels in hyperuricemic patients
Test: PRESTO study: change in serum uric acid in hyperuricemic patients (baseline >=8 mg/dL), Tranilast twice daily for 1 or 3 months
Assay type: in vivo, human
Protocol: The PRESTO (Prevention of Restenosis with Tranilast and its Outcomes) study was a multicenter study of ˜11,500 patients undergoing percutaneous transluminal coronary revascularization (PTCR) with or without stenting for single or multiple vessels over a 9-month period. The study compared the composite clinical event rate of death, myocardial infarction, or need for ischemia-driven target vessel revascularization in patients treated with Tranilast (300 and 450 mg twice daily) for 1 or 3 months versus placebo. Description of the study protocol and patient population can be found in Holmes et al., The PRESTO (Prevention of Restenosis with Tranilast and its Outcomes) protocol: A double-blind, placebo-controlled trial, Am Heart J 2000; 139:23-31; and Holmes et al., Results of Prevention of REStenosis with Tranilast and its Outcomes (PRESTO) Trial, Circulation. 2002; 106:1243, both of which are incorporated by reference herein in their entirety.
Gout was a contraindication for patient enrollment in the PRESTO trial. Nevertheless, 1100 patients enrolled in the trial were identified with baseline hyperuricemia defined as initial serum uric acid (sUA) levels greater than or equal to 7 mg/dL. Of these, approximately 300 participants had baseline serum uric acid levels greater than or equal to 8 mg/dL. […] As indicated in FIG. 1 and Table 4, some patients were treated with placebo, some patients were treated with Tranilast for 4 weeks followed by placebo, and some patients were treated with Tranilast for 12 weeks.

Compound: COc1ccc(/C=C/C(=O)Nc2ccccc2C(=O)O)cc1OC [Tranilast, 2-[[3-(3,4-dimethoxyphenyl)-1-oxo-2-propenyl]amino]benzoic acid]
- Change from Baseline in Uric Acid, Max (3M TRAN 300 mg, Follow-Up): 3.04 mg/dL
- Change from Baseline in Uric Acid, Mean (SD) (3M TRAN 300 mg, Follow-Up): −0.00 (1.519) mg/dL
- Change from Baseline in Uric Acid, Median (3M TRAN 300 mg, Follow-Up): -0.13 mg/dL
- Change from Baseline in Uric Acid, Min (3M TRAN 300 mg, Follow-Up): -3.00 mg/dL
- Change from Baseline in Uric Acid, Max (3M TRAN 300 mg, Post-PTCR): 1.90 mg/dL
- Change from Baseline in Uric Acid, Mean (SD) (3M TRAN 300 mg, Post-PTCR): −1.81 (1.966) mg/dL
- Change from Baseline in Uric Acid, Median (3M TRAN 300 mg, Post-PTCR): -1.58 mg/dL
- Change from Baseline in Uric Acid, Min (3M TRAN 300 mg, Post-PTCR): -14.79 mg/dL
- Change from Baseline in Uric Acid, Max (3M TRAN 300 mg, Week 1): 3.14 mg/dL
- Change from Baseline in Uric Acid, Mean (SD) (3M TRAN 300 mg, Week 1): −2.96 (2.394) mg/dL
- Change from Baseline in Uric Acid, Median (3M TRAN 300 mg, Week 1): -2.85 mg/dL
- Change from Baseline in Uric Acid, Min (3M TRAN 300 mg, Week 1): -15.66 mg/dL
- Change from Baseline in Uric Acid, Max (3M TRAN 300 mg, Week 2): 2.30 mg/dL
- Change from Baseline in Uric Acid, Mean (SD) (3M TRAN 300 mg, Week 2): −2.98 (2.224) mg/dL
- Change from Baseline in Uric Acid, Median (3M TRAN 300 mg, Week 2): -2.94 mg/dL
- Change from Baseline in Uric Acid, Min (3M TRAN 300 mg, Week 2): -15.09 mg/dL
- Change from Baseline in Uric Acid, Max (3M TRAN 300 mg, Week 3): 1.92 mg/dL
- Change from Baseline in Uric Acid, Mean (SD) (3M TRAN 300 mg, Week 3): −2.92 (1.946) mg/dL
- Change from Baseline in Uric Acid, Median (3M TRAN 300 mg, Week 3): -3.00 mg/dL
- Change from Baseline in Uric Acid, Min (3M TRAN 300 mg, Week 3): -6.13 mg/dL
- Change from Baseline in Uric Acid, Max (3M TRAN 300 mg, Week 4): 1.98 mg/dL
- Change from Baseline in Uric Acid, Mean (SD) (3M TRAN 300 mg, Week 4): −2.83 (2.212) mg/dL
- Change from Baseline in Uric Acid, Median (3M TRAN 300 mg, Week 4): -2.80 mg/dL
- Change from Baseline in Uric Acid, Min (3M TRAN 300 mg, Week 4): -14.30 mg/dL
- Change from Baseline in Uric Acid, Max (3M TRAN 300 mg, Week 6): 8.50 mg/dL
- Change from Baseline in Uric Acid, Mean (SD) (3M TRAN 300 mg, Week 6): −2.75 (2.755) mg/dL
- Change from Baseline in Uric Acid, Median (3M TRAN 300 mg, Week 6): -3.00 mg/dL
- Change from Baseline in Uric Acid, Min (3M TRAN 300 mg, Week 6): -15.65 mg/dL
- Change from Baseline in Uric Acid, Max (3M TRAN 300 mg, Week 8): 1.70 mg/dL
- Change from Baseline in Uric Acid, Mean (SD) (3M TRAN 300 mg, Week 8): −2.76 (2.451) mg/dL
- Change from Baseline in Uric Acid, Median (3M TRAN 300 mg, Week 8): -2.71 mg/dL
- Change from Baseline in Uric Acid, Min (3M TRAN 300 mg, Week 8): -15.77 mg/dL
- Change from Baseline in Uric Acid, Max (3M TRAN 300 mg, Week 10): 2.30 mg/dL
- Change from Baseline in Uric Acid, Mean (SD) (3M TRAN 300 mg, Week 10): −2.97 (2.490) mg/dL
- Change from Baseline in Uric Acid, Median (3M TRAN 300 mg, Week 10): -2.98 mg/dL
- Change from Baseline in Uric Acid, Min (3M TRAN 300 mg, Week 10): -15.65 mg/dL
- Change from Baseline in Uric Acid, Max (3M TRAN 300 mg, Week 12): 3.60 mg/dL
- Change from Baseline in Uric Acid, Mean (SD) (3M TRAN 300 mg, Week 12): −2.74 (2.634) mg/dL
- Change from Baseline in Uric Acid, Median (3M TRAN 300 mg, Week 12): -2.69 mg/dL
- Change from Baseline in Uric Acid, Min (3M TRAN 300 mg, Week 12): -16.02 mg/dL
- Change from Baseline in Uric Acid, Max (3M TRAN 450 mg, Follow-Up): 1.80 mg/dL
- Change from Baseline in Uric Acid, Mean (SD) (3M TRAN 450 mg, Follow-Up): −0.67 (1.277) mg/dL
- Change from Baseline in Uric Acid, Median (3M TRAN 450 mg, Follow-Up): -0.70 mg/dL
- Change from Baseline in Uric Acid, Min (3M TRAN 450 mg, Follow-Up): -2.90 mg/dL
- Change from Baseline in Uric Acid, Max (3M TRAN 450 mg, Post-PTCR): 1.70 mg/dL
- Change from Baseline in Uric Acid, Mean (SD) (3M TRAN 450 mg, Post-PTCR): −2.16 (1.577) mg/dL
- Change from Baseline in Uric Acid, Median (3M TRAN 450 mg, Post-PTCR): -1.90 mg/dL
- Change from Baseline in Uric Acid, Min (3M TRAN 450 mg, Post-PTCR): -7.34 mg/dL
- Change from Baseline in Uric Acid, Max (3M TRAN 450 mg, Week 1): 0.90 mg/dL
- Change from Baseline in Uric Acid, Mean (SD) (3M TRAN 450 mg, Week 1): −3.84 (1.839) mg/dL
- Change from Baseline in Uric Acid, Median (3M TRAN 450 mg, Week 1): -3.99 mg/dL
- Change from Baseline in Uric Acid, Min (3M TRAN 450 mg, Week 1): -8.79 mg/dL
- Change from Baseline in Uric Acid, Max (3M TRAN 450 mg, Week 2): 0.92 mg/dL
- Change from Baseline in Uric Acid, Mean (SD) (3M TRAN 450 mg, Week 2): −4.05 (1.861) mg/dL
- Change from Baseline in Uric Acid, Median (3M TRAN 450 mg, Week 2): -4.56 mg/dL
- Change from Baseline in Uric Acid, Min (3M TRAN 450 mg, Week 2): -8.72 mg/dL
- Change from Baseline in Uric Acid, Max (3M TRAN 450 mg, Week 3): 1.50 mg/dL
- Change from Baseline in Uric Acid, Mean (SD) (3M TRAN 450 mg, Week 3): −2.84 (2.227) mg/dL
- Change from Baseline in Uric Acid, Median (3M TRAN 450 mg, Week 3): -3.79 mg/dL
- Change from Baseline in Uric Acid, Min (3M TRAN 450 mg, Week 3): -5.79 mg/dL
- Change from Baseline in Uric Acid, Max (3M TRAN 450 mg, Week 4): 1.43 mg/dL
- Change from Baseline in Uric Acid, Mean (SD) (3M TRAN 450 mg, Week 4): −3.70 (2.190) mg/dL
- Change from Baseline in Uric Acid, Median (3M TRAN 450 mg, Week 4): -3.90 mg/dL
- Change from Baseline in Uric Acid, Min (3M TRAN 450 mg, Week 4): -8.40 mg/dL
- Change from Baseline in Uric Acid, Max (3M TRAN 450 mg, Week 6): 2.70 mg/dL
- Change from Baseline in Uric Acid, Mean (SD) (3M TRAN 450 mg, Week 6): −3.89 (2.265) mg/dL
- Change from Baseline in Uric Acid, Median (3M TRAN 450 mg, Week 6): -4.39 mg/dL
- Change from Baseline in Uric Acid, Min (3M TRAN 450 mg, Week 6): -8.69 mg/dL
- Change from Baseline in Uric Acid, Max (3M TRAN 450 mg, Week 8): 1.40 mg/dL
- Change from Baseline in Uric Acid, Mean (SD) (3M TRAN 450 mg, Week 8): −3.65 (2.104) mg/dL
- Change from Baseline in Uric Acid, Median (3M TRAN 450 mg, Week 8): -3.83 mg/dL
- Change from Baseline in Uric Acid, Min (3M TRAN 450 mg, Week 8): -7.16 mg/dL
- Change from Baseline in Uric Acid, Max (3M TRAN 450 mg, Week 10): 1.50 mg/dL
- Change from Baseline in Uric Acid, Mean (SD) (3M TRAN 450 mg, Week 10): −3.73 (2.306) mg/dL
- Change from Baseline in Uric Acid, Median (3M TRAN 450 mg, Week 10): -4.10 mg/dL
- Change from Baseline in Uric Acid, Min (3M TRAN 450 mg, Week 10): -8.60 mg/dL
- Change from Baseline in Uric Acid, Max (3M TRAN 450 mg, Week 12): 0.50 mg/dL
- Change from Baseline in Uric Acid, Mean (SD) (3M TRAN 450 mg, Week 12): −3.79 (2.065) mg/dL
- Change from Baseline in Uric Acid, Median (3M TRAN 450 mg, Week 12): -4.30 mg/dL
- Change from Baseline in Uric Acid, Min (3M TRAN 450 mg, Week 12): -8.12 mg/dL
- serum uric acid levels in patients treated with Tranilast (analysis of PRESTO data, 300 and 450 mg twice daily): markedly decreased
